Data taken from patent EP0378285A1, “Substituted alkenes, processes for their preparation and their use as pesticides” (priority 1989, dated 1990).

What was measured:
Type in all cases: in vivo
Aphis fabae = assay: Activity in prophylactic treatment of leaf discs against Aphis fabae; settings: Aphis fabae, foliar, 48 h; 0.1% aqueous preparation; field bean leaf discs infested with wingless stages; 2 days at 25 C; percentage mortality, Abbott's method
Protocol: From the primary leaf of field beans (Phaseolus vulgaris nanus Aschers.), 24 mm diameter discs were cut. Some of these were treated with a 0.1% aqueous preparations of compounds of the invention and these along side untreated discs were placed on filter papers with the underside of the leaves turned upwards. After drying the test pieces, they were each infested with wingless stages of Aphis fabae (approx 100 per leaf piece). The experiment was replicated 3 times. The leaves were kept on wet filter papers for 2 days at 25 C and 16 hours light per day. The percentage mortality was then estimated and the activity calculated using Abbott's method in comparison with the untreated controls.

[1] = tested on: brown rice-hoppers (Niliparvata lugens Stal); assay: Use Example B: activity in prophylactic treatment of leaves against brown rice-hoppers; settings: 48 h, read-out: activity
From the text: Activity in prophylactic treatment of leaves against brown rice-hoppers (Niliparvata lugens Stal)
Rice seedlings (Oryzae sativa L.) in the two leaf stage (about 10 per polystyrene pot of size 6.5 x 6.5 cm) were either untreated or […] until dripping wet, with an aqueous preparation containing 0.1 % of active material. After drying the sprayed leaves, a transparent cylinder was placed over each pot and through an opening, about 30 brown rice-hoppers (Niliparvata lugens) in the 4-5 stage, anaesthetised with carbon dioxide, were introduced into each pot. After closing the opening with a fine mesh screen, the pots were kept for 2 days at 28° C and 16 hours/day of light in the glasshouse, the amount of dead hoppers was determined. The percentage mortality was then estimated and the activity calculated using Abbott's method in comparison with the untreated controls.

[2] = tested on: two spotted mite (Tetranychus urticae Koch); assay: Use Example C: activity in the prophylactic treatment of feed against the two spotted mite; settings: foliar, 0.1 % aqueous preparation, field bean leaf discs, adults and eggs counted after 3 days at 25 C, larvae after a further 7 days, Abbott's method
Protocol: Activity in the prophylactic treatment of feed against the two spotted mite (Tetranychus urticae Koch)
From the primary leaf of field beans (Phaseolus vulgaris nanus Aschers.) 14 mm diameter discs were cut. Some of these were treated with a 0.1 % aqueous preparations of compounds of the invention and these along side untreated discs were placed on filter papers with the underside of the leaves turned upwards. After drying the test pieces, they were each infested with six adult female Tetranychus urticae and maintained for 3 days at 25 C and 16 hours light per day. The experiment was replicated 4 times. Dead and alive adults were then counted and removed. Similarly the number of eggs laid were counted. After a further 7 days, the number of living larvae were counted, the activity calculated using Abbott's method in comparison with the untreated controls.

[3] = tested on: corn rootworm (Diabrotica undecimpunctata); assay: Use Example D: activity against eggs/larvae of the corn rootworm; settings: Diabrotica undecimpunctata, 168 h; aqueous emulsion 0.1%, 0.2 ml pipetted into soil; 7 days at 25 C; death of eggs or newly hatched larvae
Protocol: Activity against eggs/larvae of the corn rootworm (Diabrotica undecimpunctata)
The compounds of the invention were made up as aqueous emulsions at a concentration of 0.1%. Into the soil in polystyrene petri dishes, containing maize seedlings (1 seedling/dish) and ca. 50 eggs of the corn rootworm (Diabrotica undecimpunctata) were pipetted 0.2 ml of these preparations. The closed dishes were left at 25 C under extended daylight conditions for 7 days. The criterion for judging the activity was the death of eggs or newly hatched larvae at the end of the test.

[4] = tested on: cotton bollworm (Heliothis viriscens); assay: whole plant or invertebrate; settings: 48 h, read-out: activity
Protocol: Activity against larvae (L1) of the cotton bollworm (Heliothis viriscens)
Compounds of the invention were made up as aqueous preparations at a concentration of 0.1 %. Into these, feed material was dipped for 2 seconds. After drying the feed material was put into into polystyrene petri dishes. After an hour, 10 L1 of the cotton bollworm (Heliothis viriscens) were counted into the dishes. The closed dishes were left for up to 7 days at 25 °C under extended daylight conditions. The % mortality of the larvae after two days indicated the level of activity.

[5] = tested on: cotton bollworm (Heliothis viriscens); assay: Use Example H: ovicidal activity against eggs of the cotton bollworm; settings: aqueous preparation 0.1 %; one day old eggs dipped; four days; % inhibition of hatching of the eggs
From the text: Ovicidal activity against eggs of the cotton bollworm (Heliothis viriscens)
The compounds of the invention were made up as aqueous preparations at a concentration of 0.1 %. One day old eggs that had been laid on filter paper by fertilised female moths were dipped in the preparations until they were completely wet and then placed in closed petri dishes under extended daylight conditions for four days. The % inhibition of hatching of the eggs in comparison with untreated eggs indicates the level of activity.

## C=C(C)C(C)(C)COCc1ccc(F)c(Nc2ccccc2)c1 [Example 20, 4-(3-anilino-4-fluorobenzyloxy)-2,3,3-trimethyl-1-butene]
Aphis fabae
  mortality at 0.1 %: ≥ 80%
[1]
  mortality at 0.1 %: ≥ 80%
[2]
  mortality at 0.1 %: 80 to 100%
[3]
  mortality at 0.1 %: 80 to 100%
[4]
  mortality at 0.1 %: 80 to 100%
[5]
  activity: 80 - 100%
